# Measurements taken from patent US11401555B2, “Genetic polymorphisms associated with stroke, methods of detection and uses thereof” (CELERA CORPORATION, priority 2008, dated 2022).
# Assay: Stroke statin response (SSR) in the CARE pravastatin trial: pravastatin-treated versus placebo-treated, by SNP genotype
# Type: in vivo, human
# Details: CARE; for HR: pravastatin vs placebo; for HR (hazard ratio for stroke, pravastatin vs placebo): rs10757274 (hCV26505812), placebo = ref; for EVENTS (number of stroke events): rs10757274, pravastatin arm; for EVENTS: stroke events in pravastatin arm
smiles,measurement,setting,value
CC[C@H](C)C(=O)O[C@H]1C[C@H](O)C=C2C=C[C@H](C)[C@H](CC[C@@H](O)C[C@@H](O)CC(=O)O)[C@H]21 [pravastatin],HR,"hCV945276 rs89962 KRT4, DOM, genotype TG + TT, 95% CL 0.48-1.027, p 0.0683",0.7
same,HR,"hCV945276 rs89962 KRT4, GEN, genotype GG, 95% CL 0.349-1.196, p 0.1641",0.65
same,HR,"hCV945276 rs89962 KRT4, GEN, genotype TG, 95% CL 0.423-0.979, p 0.0397",0.64
same,HR,"hCV945276 rs89962 KRT4, GEN, genotype TT, 95% CL 0.392-2.375, p 0.9381",0.96
same,HR,"hCV945276 rs89962 KRT4, REC, genotype TG + GG, 95% CL 0.458-0.916, p 0.0141",0.65
same,HR,"hCV1022614 rs220479 ITGAE, DOM, genotype CT + CC, 95% CL 0.541-1.024, p 0.0696",0.74
same,HR,"hCV1022614 rs220479 ITGAE, GEN, genotype CC, 95% CL 0.609-1.295, p 0.5366",0.89
same,HR,"hCV1022614 rs220479 ITGAE, GEN, genotype CT, 95% CL 0.257-0.887, p 0.0192",0.48
same,HR,"hCV1022614 rs220479 ITGAE, GEN, genotype TT, 95% CL 0.203-4.047, p 0.8969",0.91
same,HR,"hCV1022614 rs220479 ITGAE, REC, genotype CT + TT, 95% CL 0.294-0.921, p 0.0248",0.52
same,HR,"hCV2091644 rs1010 VAMP8, DOM, genotype CT + CC, 95% CL 0.507-1.126, p 0.1678",0.76
same,HR,"hCV2091644 rs1010 VAMP8, GEN, genotype CC, 95% CL 0.51-2.73, p 0.6997",1.18
same,HR,"hCV2091644 rs1010 VAMP8, GEN, genotype CT, 95% CL 0.418-1.045, p 0.0763",0.66
same,HR,"hCV2091644 rs1010 VAMP8, GEN, genotype TT, 95% CL 0.43-1.186, p 0.1928",0.71
same,HR,"hCV2091644 rs1010 VAMP8, REC, genotype CT + TT, 95% CL 0.487-0.961, p 0.0284",0.68
same,HR,"hCV2169762 rs1804689 HPS1, DOM, genotype TG + TT, 95% CL 0.612-1.461, p 0.8004",0.95
same,HR,"hCV2169762 rs1804689 HPS1, GEN, genotype GG, 95% CL 0.372-0.924, p 0.0214",0.59
same,HR,"hCV2169762 rs1804689 HPS1, GEN, genotype TG, 95% CL 0.583-1.468, p 0.7398",0.92
same,HR,"hCV2169762 rs1804689 HPS1, GEN, genotype TT, 95% CL 0.266-3.694, p 0.9903",0.99
same,HR,"hCV2169762 rs1804689 HPS1, REC, genotype TG + GG, 95% CL 0.529-1.006, p 0.0547",0.73
same,HR,"hCV2192261 rs3213646 EXOD1, DOM, genotype CT + CC, 95% CL 0.506-1.048, p 0.0882",0.73
same,HR,"hCV2192261 rs3213646 EXOD1, GEN, genotype CC, 95% CL 0.613-1.799, p 0.8592",1.05
same,HR,"hCV2192261 rs3213646 EXOD1, GEN, genotype CT, 95% CL 0.328-0.898, p 0.0175",0.54
same,HR,"hCV2192261 rs3213646 EXOD1, GEN, genotype TT, 95% CL 0.316-1.278, p 0.2036",0.64
same,HR,"hCV2192261 rs3213646 EXOD1, REC, genotype CT + TT, 95% CL 0.379-0.857, p 0.007",0.57
same,HR,"hCV7425232 rs3900940 MYH15, DOM, genotype CT + CC, 95% CL 0.468-1.102, p 0.1293",0.72
same,HR,"hCV7425232 rs3900940 MYH15, GEN, genotype CC, 95% CL 0.461-2.296, p 0.9448",1.03
same,HR,"hCV7425232 rs3900940 MYH15, GEN, genotype CT, 95% CL 0.365-1.022, p 0.0604",0.61
same,HR,"hCV7425232 rs3900940 MYH15, GEN, genotype TT, 95% CL 0.442-1.146, p 0.1618",0.71
same,HR,"hCV7425232 rs3900940 MYH15, REC, genotype CT + TT, 95% CL 0.467-0.939, p 0.0207",0.66
same,HR,"hCV11450563 rs2038366, DOM, genotype GT + GG, 95% CL 0.567-1.148, p 0.2334",0.81
same,HR,"hCV11450563 rs2038366, GEN, genotype GG, 95% CL 0.669-1.975, p 0.6132",1.15
same,HR,"hCV11450563 rs2038366, GEN, genotype GT, 95% CL 0.381-0.986, p 0.0436",0.61
same,HR,"hCV11450563 rs2038366, GEN, genotype TT, 95% CL 0.472-2.724, p 0.7789",1.13
same,HR,"hCV11450563 rs2038366, REC, genotype GT + TT, 95% CL 0.463-1.064, p 0.0954",0.7
same,"HR (hazard ratio for stroke, pravastatin vs placebo)","adjusted (age, male, current smoking, hypertension, diabetes, BMI, baseline LDL, HDL), mode DOM, genotype GA + GG",0.73
same,"HR (hazard ratio for stroke, pravastatin vs placebo)","adjusted (age, male, current smoking, hypertension, diabetes, BMI, baseline LDL, HDL), mode GEN, genotype GA",0.61
same,"HR (hazard ratio for stroke, pravastatin vs placebo)","adjusted (age, male, current smoking, hypertension, diabetes, BMI, baseline LDL, HDL), mode GEN, genotype GG",1
same,"HR (hazard ratio for stroke, pravastatin vs placebo)","adjusted (age, male, current smoking, hypertension, diabetes, BMI, baseline LDL, HDL), mode REC, genotype GA + AA",0.69
same,"HR (hazard ratio for stroke, pravastatin vs placebo)","unadjusted, mode DOM, genotype AG + AA",0.65
same,"HR (hazard ratio for stroke, pravastatin vs placebo)","unadjusted, mode GEN, genotype AG",0.58
same,"HR (hazard ratio for stroke, pravastatin vs placebo)","unadjusted, mode GEN, genotype GG",0.91
same,"HR (hazard ratio for stroke, pravastatin vs placebo)","unadjusted, mode REC, genotype AG + GG",0.69
same,EVENTS (number of stroke events),"adjusted analysis, mode DOM, genotype GA + GG, total 1131",54
same,EVENTS (number of stroke events),"adjusted analysis, mode GEN, genotype AA, total 328",18
same,EVENTS (number of stroke events),"adjusted analysis, mode GEN, genotype GA, total 690",29
same,EVENTS (number of stroke events),"adjusted analysis, mode GEN, genotype GG, total 441",25
same,EVENTS (number of stroke events),"unadjusted, mode DOM, genotype AG + AA, total 981",44
same,EVENTS (number of stroke events),"unadjusted, mode GEN, genotype AA, total 315",17
same,EVENTS (number of stroke events),"unadjusted, mode GEN, genotype AG, total 666",27
same,EVENTS (number of stroke events),"unadjusted, mode GEN, genotype GG, total 414",23
same,EVENTS (number of stroke events),"unadjusted, mode REC, genotype AG + GG, total 1080",50
same,EVENTS,"rs1010 VAMP8, DOM, genotype CT + CC, TOTAL 957",43
same,EVENTS,"rs1010 VAMP8, GEN, genotype CC, TOTAL 271",12
same,EVENTS,"rs1010 VAMP8, GEN, genotype CT, TOTAL 686",31
same,EVENTS,"rs1010 VAMP8, GEN, genotype TT, TOTAL 455",26
same,EVENTS,"rs1010 VAMP8, REC, genotype CT + TT, TOTAL 1141",57
same,EVENTS,"rs89962 KRT4, DOM, genotype TG + TT, TOTAL 912",46
same,EVENTS,"rs89962 KRT4, GEN, genotype GG, TOTAL 443",17
same,EVENTS,"rs89962 KRT4, GEN, genotype TG, TOTAL 674",37
same,EVENTS,"rs89962 KRT4, GEN, genotype TT, TOTAL 238",9
same,EVENTS,"rs89962 KRT4, REC, genotype TG + GG, TOTAL 1117",54
same,EVENTS,"rs220479 ITGAE, DOM, genotype CT + CC, TOTAL 1381",67
same,EVENTS,"rs220479 ITGAE, GEN, genotype CC, TOTAL 973",52
same,EVENTS,"rs220479 ITGAE, GEN, genotype CT, TOTAL 408",15
same,EVENTS,"rs220479 ITGAE, GEN, genotype TT, TOTAL 46",3
same,EVENTS,"rs220479 ITGAE, REC, genotype CT + TT, TOTAL 454",18
same,EVENTS,"rs1804689 HPS1, DOM, genotype TG + TT, TOTAL 759",40
same,EVENTS,"rs1804689 HPS1, GEN, genotype GG, TOTAL 668",30
same,EVENTS,"rs1804689 HPS1, GEN, genotype TG, TOTAL 652",36
same,EVENTS,"rs1804689 HPS1, GEN, genotype TT, TOTAL 107",4
same,EVENTS,"rs1804689 HPS1, REC, genotype TG + GG, TOTAL 1320",66
same,EVENTS,"rs2038366, DOM, genotype GT + GG, TOTAL 1177",57
same,EVENTS,"rs2038366, GEN, genotype GG, TOTAL 539",29
same,EVENTS,"rs2038366, GEN, genotype GT, TOTAL 638",28
same,EVENTS,"rs2038366, GEN, genotype TT, TOTAL 151",10
